Test results: the NIST ThermoML archive (doi:10.1021/je060084c)

Tests used:
[1] = 298.15 K; for mass density: 101.33 kPa, Liquid
[2] = refractive index (Na D-line) (dimensionless); settings: 298.15 K; 101.33 kPa; Liquid; Standard Abbe refractometry
[3] = xn = mol fraction of the nth substance listed; settings: 298.15 K; for mass density: 101 kPa, Liquid
[4] = refractive index (Na D-line) (dimensionless); xn = mol fraction of the nth substance listed; settings: 298.15 K, 101 kPa, Liquid, Standard Abbe refractometry

CC(=O)O [acetic acid]
Settings	mass density [kg/m3]	refractive index	surface tension liquid-gas [mN/m]
[1]	1043.95	–	27.08
[2]	–	1.36969	–

CC(=O)O [acetic acid] + O
Settings	mass density, [3] [kg/m3]	refractive index, [4]	surface tension liquid-gas, [3] [mN/m]
x1 = 0.0001	–	–	71.79
x1 = 0.0005	–	–	71.18
x1 = 0.0007	997.41	1.33285	71.04
x1 = 0.0008	–	–	70.84
x1 = 0.0012	997.88	1.33312	70.37
x1 = 0.006	998.92	1.33422	66.17
x1 = 0.0066	–	–	65.76
x1 = 0.0119	1000.78	1.33576	62.57
x1 = 0.0138	–	–	61.57
x1 = 0.0234	–	–	58.26
x1 = 0.0257	1004.39	1.33874	57.45
x1 = 0.0404	–	–	53.14
x1 = 0.0516	1011.91	1.34364	50.64
x1 = 0.0746	–	–	47.25
x1 = 0.1086	–	–	43.43
x1 = 0.1108	1031.57	1.35281	43.39
x1 = 0.1513	1040.9	1.35708	40.12
x1 = 0.1814	1046.55	1.36009	39.24
x1 = 0.2288	1052.46	1.36386	38.17
x1 = 0.3053	1058.74	1.36818	36.5
x1 = 0.4129	1063.49	1.3723	34.8
x1 = 0.516	1064.54	1.37456	33.23
x1 = 0.6068	1063.64	1.37543	31.87
x1 = 0.7035	1061.07	1.37543	30.32
x1 = 0.8067	1057	1.37459	29.32
x1 = 0.9076	1051.89	1.37257	28.42

CCCC(=O)O [butanoic acid]
Settings	mass density [kg/m3]	refractive index	surface tension liquid-gas [mN/m]
[1]	953.17	–	26.19
[2]	–	1.39599	–

CCCC(=O)O [butanoic acid] + O
Settings	mass density, [3] [kg/m3]	refractive index, [4]	surface tension liquid-gas, [3] [mN/m]
x1 = 4e-05	997.14	1.33256	71.12
x1 = 0.0001	997.28	1.33259	70.47
x1 = 0.0006	997.35	1.33282	66.32
x1 = 0.0016	997.39	1.33325	60.32
x1 = 0.0028	–	–	55.12
x1 = 0.0056	998.24	1.33514	46.34
x1 = 0.0075	–	–	42.12
x1 = 0.0136	999.83	1.33877	35.88
x1 = 0.0201	1000.84	1.34064	31.94
x1 = 0.0299	1001.79	1.34506	29.24
x1 = 0.048	1001.61	1.35064	28.48
x1 = 0.0596	1000.55	1.35359	28.35
x1 = 0.0865	998.76	1.35959	28.23
x1 = 0.1034	997.68	1.36283	28.15
x1 = 0.2033	992.5	1.37695	27.92
x1 = 0.2997	987.71	1.38524	27.73
x1 = 0.381	983.12	1.38923	27.66
x1 = 0.5038	977.2	1.3933	27.56
x1 = 0.5763	973.62	1.39471	27.42
x1 = 0.7036	967.47	1.39625	27.13
x1 = 0.8019	962.35	1.39667	26.9
x1 = 0.9189	957.18	1.39654	26.51

O=CO [formic acid]
Settings	mass density [kg/m3]	refractive index	surface tension liquid-gas [mN/m]
[1]	1211.29	–	38.17
[2]	–	1.37459	–

O=CO [formic acid] + O
Settings	mass density, [3] [kg/m3]	refractive index, [4]	surface tension liquid-gas, [3] [mN/m]
x1 = 0.0007	997.52	1.33265	71.48
x1 = 0.0015	998.02	1.33269	71.14
x1 = 0.0028	998.79	1.33271	70.65
x1 = 0.0067	1001.27	1.33343	69.45
x1 = 0.0106	1003.6	1.3344	68.59
x1 = 0.0154	1006.31	1.33496	67.53
x1 = 0.0277	1013.84	1.33633	65.46
x1 = 0.0442	–	–	63.13
x1 = 0.0538	1026.93	1.33912	–
x1 = 0.0755	–	–	59.92
x1 = 0.1098	1052.76	1.34454	57.29
x1 = 0.1539	1069.49	1.34829	55.23
x1 = 0.204	1086.51	1.35223	52.74
x1 = 0.3004	1114.3	1.35863	49.18
x1 = 0.4178	1141.55	1.36478	47.25
x1 = 0.5101	1158.59	1.36885	45.73
x1 = 0.6133	1174.83	1.3722	43.41
x1 = 0.7058	1187.06	1.37444	41.42
x1 = 0.8162	1198.4	1.37543	40.12
x1 = 0.8967	1204.13	1.37543	39.13

CCC(=O)O [propanoic acid]
Settings	mass density [kg/m3]	refractive index	surface tension liquid-gas [mN/m]
[1]	988.33	–	26.15
[2]	–	1.38484	–

CCC(=O)O [propanoic acid] + O
Settings	mass density, [3] [kg/m3]	refractive index, [4]	surface tension liquid-gas, [3] [mN/m]
x1 = 0.0008	997.47	1.33292	68.52
x1 = 0.0016	997.64	1.33304	66.47
x1 = 0.0029	998.15	1.33367	63.66
x1 = 0.0044	998.68	1.33422	60.98
x1 = 0.0064	999.29	1.33485	57.91
x1 = 0.0103	1000.6	1.33606	53.54
x1 = 0.0179	1002.71	1.3385	48.16
x1 = 0.0272	1005.51	1.34145	44.12
x1 = 0.047	1006.86	1.34689	38.89
x1 = 0.0618	1008.97	1.35074	36.93
x1 = 0.0989	1017.17	1.35796	34.71
x1 = 0.2016	1022.07	1.37093	32.25
x1 = 0.3008	1021.51	1.3784	31.12
x1 = 0.4003	1018.87	1.38294	30.19
x1 = 0.5009	1014.33	1.38564	29.36
x1 = 0.6039	1010.12	1.3869	28.56
x1 = 0.702	1005.03	1.38721	27.91
x1 = 0.7666	1002.83	1.38709	27.52
x1 = 0.8784	996.68	1.38599	26.92
